Test results: patent publication US9611262B2, “Substituted 2-azabicycles and their use as orexin receptor modulators” (JANSSEN PHARMACEUTICA NV, priority 2014, dated 2017)

Key:
rat orexin 1 receptor = rat orexin 1 receptor (Rattus norvegicus, UniProt P56718); assay: Rat orexin 1 receptor radioligand binding (competitive); settings: HEK293 cells stably expressing rat orexin 1 receptor; 4 nM radioligand; averages of 2-20 runs; read-out: rOX1 Ki
Procedure: (§1) The in vitro affinity of the compounds of the invention for the rat/human orexin 1 and human orexin 2 receptors was determined by competitive radioligand binding using [^3H](1-(5-(2-fluoro-phenyl)-2-methyl-thiazol-4-yl)-1-((S)-2-(5-phenyl-(1,3,4)oxadiazol-2-ylmethyl)-pyrrolidin-1-yl)-methanone) (Langmead et al., 2004) and [^3H]EMPA (n-ethyl-2[96-methoxy-pyridin-3-yl)-(toluene-2-sulfonyl)-amino]-N-pyridin-3-ylmethyl acetamide), respectively (Langmead et al., 2004, British Journal of Pharmacology 141:340-346; Malherbe et al., 2004, British Journal of Pharmacology 156:1326-41).
(§2) Data are analyzed using pc-Sandy macro and graphed on Graphpad Prism 5. For analysis, each concentration point is averaged from triplicate values and the averaged values are plotted on Graphpad Prism. The IC50 was determined by applying the following equation (GraphPad Prism 5.0, San Diego) for one site competition where X=log (concentration) and Y=specific binding. Top denotes the total [^3H]— (1-(5-(2-fluoro-phenyl)-2-methyl-thiazol-4-yl)-1-((S)-2-(5-phenyl-(1,3,4)oxadiazol-2-ylmethyl)-pyrrolidin-1-yl)-methanone) binding, bottom denotes the nonspecific [^3H]— (1-(5-(2-fluoro-phenyl)-2-methyl-thiazol-4-yl)-1-((S)-2-(5-phenyl-(1,3,4)oxadiazol-2-ylmethyl)-pyrrolidin-1-yl)-methanone) binding. Graphpad Prism calculates Ki value from IC50 and the pre-determined Kd values for [^3H]— (1-(5-(2-fluoro-phenyl)-2-methyl-thiazol-4-yl)-1-((S)-2-(5-phenyl-(1,3,4)oxadiazol-2-ylmethyl)-pyrrolidin-1-yl)-methanone) and [^3H]-EMPA. The Ki for each compound is then uploaded into 3DX. Each run comprises individual compounds in triplicate. The data in Table 1 and Table 2 represent averages from between 2-20 runs
(§3) Rat and Human Orexin 1 Receptor Radioligand Binding Studies
(§4) Human Embryonic Kidney 293 cells (HEK293) stably expressing rat orexin 1 receptor (Genebank accession number NM_001525) or Chinese ovary cells (CHO) stably expressing human orexin 1 receptor (Genebank accession number […]) were grown to confluency in DMEM (Hyclone, cat # SH30022), 10% FBS, 1× Pen/Strep, 1× sodium pyruvate, 10 mM HEPES, 600 μg/mL G418 and DMEM/F12 (Gibco, Cat #11039), 10% FBS, 1× Pen/Strep, 600 μg/mL G418 media, respectively on 150 cm^2 tissue culture plates, washed with 5 mM EDTA in PBS (HyClone Dulbecco's Phosphate Buffered Saline 1× with Calcium and Magnesium, Cat # SH30264.01, hereafter referred to simply as PBS) and scraped into 50 ml tubes. After centrifugation (2K×G, 5 min at 4° C.), the supernatant was aspirated and the pellets frozen and stored at −80° C. Cells were resuspended in PBS in the presence of 1 tablet of protease inhibitor cocktail (Roche, Cat. #11836145001) per 50 mL. […] Competition binding experiments in 96 well polypropylene plates were performed using [^3H]— (1-(5-(2-fluoro-phenyl)-2-methyl-thiazol-4-yl)-1-((S)-2-(5-phenyl-(1,3,4)oxadiazol-2-ylmethyl)-pyrrolidin-1-yl)-methanone) (Moraveck Corporation, specific activity=35.3 Ci/mmol), diluted to a 10 nM concentration in PBS (4 nM final). Compounds were solubilized in 100% DMSO (Acros Organics, Cat. #61042-1000) and tested over a range of 7 concentrations (from 0.1 nM to 10 μM). The final concentration of DMSO in the reactions is equal to or less than 0.1%. Total and nonspecific binding was determined in the absence and presence of 10 μM almorexant. The total volume of each reaction is 200 μL (20 μL of diluted compounds, 80 μL of [^3H]— (1-(5-(2-fluoro-phenyl)-2-methyl-thiazol-4-yl)-1-((S)-2-(5-phenyl-(1,3,4)oxadiazol-2-ylmethyl)-pyrrolidin-1-yl)-methanone) diluted in PBS and 100 μL of the cell suspension). Reactions were run for 60 min at room temperature and terminated by filtration through GF/C filter plates (PerkinElmer, Cat. #6005174) presoaked in 0.3% polyethylenimine using the cell harvester (PerkinElmer Filtermate). The plates were washed 3 times by aspirating 30 ml PBS through the plates. Plates were dried in 55° C. oven for 60 min, scintillation fluid was added, and the radioactivity was counted on a Topcount (Packard). […]

human orexin 2 receptor = human orexin 2 receptor (Homo sapiens (Human), UniProt O43614); assay: Human orexin 2 receptor radioligand binding ([3H]-EMPA competition); settings: HEK293 stably expressing human orexin 2 receptor; 2 nM [3H]-EMPA; averages of 2-20 runs; read-out: hOX2 Ki
Method in brief: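 Membranes-free whole HEK293 cells stably expressing human OX2 receptor incubated with [3H]-EMPA and compound (7 concentrations, 0.1 nM–10 μM, ≤0.1% DMSO) for 60 min at room temperature; nonspecific binding with 10 μM almorexant. Filtration and scintillation counting; one-site IC50 converted to Ki using predetermined Kd, triplicates averaged over 2-20 runs.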

human orexin 1 receptor = human orexin 1 receptor (Homo sapiens (Human), UniProt O43613); assay: Human orexin 1 receptor radioligand binding (competitive); settings: CHO cells stably expressing human orexin 1 receptor; 4 nM radioligand; averages of 2-20 runs; read-out: hOX1 Ki
Procedure: as §1, §2, §3, §4

Sequence of human orexin 2 receptor (O43614 whole entry): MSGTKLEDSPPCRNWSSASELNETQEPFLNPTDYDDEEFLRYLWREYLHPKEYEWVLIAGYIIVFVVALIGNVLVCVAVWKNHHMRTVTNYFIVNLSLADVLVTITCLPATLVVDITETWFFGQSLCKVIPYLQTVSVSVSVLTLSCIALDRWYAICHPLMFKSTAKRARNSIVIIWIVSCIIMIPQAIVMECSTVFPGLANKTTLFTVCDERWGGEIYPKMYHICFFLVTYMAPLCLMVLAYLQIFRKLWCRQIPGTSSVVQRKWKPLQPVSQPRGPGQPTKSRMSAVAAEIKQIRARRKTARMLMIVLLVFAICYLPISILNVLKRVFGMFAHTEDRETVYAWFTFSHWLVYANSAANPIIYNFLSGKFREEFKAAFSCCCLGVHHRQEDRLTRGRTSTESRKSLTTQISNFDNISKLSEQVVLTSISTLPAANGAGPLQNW
Sequence of human orexin 1 receptor (O43613 whole entry): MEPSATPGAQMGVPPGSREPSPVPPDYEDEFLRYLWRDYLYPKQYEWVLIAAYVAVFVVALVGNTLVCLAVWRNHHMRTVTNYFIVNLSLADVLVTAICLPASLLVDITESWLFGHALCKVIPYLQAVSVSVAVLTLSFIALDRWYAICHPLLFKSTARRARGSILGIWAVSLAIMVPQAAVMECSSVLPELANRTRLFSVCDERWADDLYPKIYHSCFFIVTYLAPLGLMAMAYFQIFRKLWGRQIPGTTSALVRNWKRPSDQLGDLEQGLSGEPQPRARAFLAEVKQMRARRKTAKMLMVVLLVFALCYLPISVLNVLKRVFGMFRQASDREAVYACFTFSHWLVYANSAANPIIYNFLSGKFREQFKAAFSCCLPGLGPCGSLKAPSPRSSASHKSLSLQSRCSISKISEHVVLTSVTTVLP

Ki (rat orexin 1 receptor) [nM]	Ki (human orexin 2 receptor) [nM]	Ki (human orexin 1 receptor) [nM]	SMILES
52	3940		C[C@@H]1[C@H]2C[C@@H](Oc3ccc(C(F)(F)F)cn3)[C@H](C2)N1C(=O)c1ccccc1-c1ncc(OCCF)cn1 [Example 169, [2-[5-(2-fluoroethoxy)pyrimidin-2-yl]phenyl]-[(1R,2R,4S,5R)-2-methyl-5-[[5-(trifluoromethyl)-2-pyridyl]oxy]-3-azabicyclo[2.2.1]heptan-3-yl]methanone]
9	1600		C[C@@H]1[C@H]2C[C@@H](Oc3ccc(C(F)(F)F)cn3)[C@H](C2)N1C(=O)c1ccccc1-c1cnc(F)cn1 [Example 170, [2-(5-fluoropyrazin-2-yl)phenyl]-[(1R,2R,4S,5R)-2-methyl-5-[[5-(trifluoromethyl)-2-pyridyl]oxy]-3-azabicyclo[2.2.1]heptan-3-yl]methanone]
	343	5	C[C@@H]1[C@H]2C[C@@H](Oc3ccc(C(F)(F)F)cn3)[C@H](C2)N1C(=O)c1ccccc1-c1cccc(F)n1 [Example 173, [2-(6-fluoro-2-pyridyl)phenyl]-[(1R,2R,4S,5R)-2-methyl-5-[[5-(trifluoromethyl)-2-pyridyl]oxy]-3-azabicyclo[2.2.1]heptan-3-yl]methanone]
1150	> 10000		O=C(c1c(F)cccc1-n1nccn1)N1[C@H](CO)[C@@H]2CC[C@H]1[C@H](Oc1ccc(C(F)(F)F)cn1)C2 [Example 177, [2-fluoro-6-(triazol-2-yl)phenyl]-[(1R,2S,4S,5R)-2-(hydroxymethyl)-5-[[5-(trifluoromethyl)-2-pyridyl]oxy]-3-azabicyclo[2.2.2]octan-3-yl]methanone]
1100	> 10000		O=C(c1cc(F)ccc1-c1ncc(F)cn1)N1[C@H](CO)[C@@H]2CC[C@H]1[C@H](Oc1ccc(C(F)(F)F)cn1)C2 [Example 178, [5-fluoro-2-(5-fluoropyrimidin-2-yl)phenyl]-[(1R,2S,4S,5R)-2-(hydroxymethyl)-5-[[5-(trifluoromethyl)-2-pyridyl]oxy]-3-azabicyclo[2.2.2]octan-3-yl]methanone]
15	2100		COC[C@@H]1[C@@H]2CC[C@@H]([C@H](Oc3ccc(C(F)(F)F)cn3)C2)N1C(=O)c1nc(C)ccc1-n1nccn1 [Example 179, [(1R,2S,4S,5R)-2-(methoxymethyl)-5-[[5-(trifluoromethyl)-2-pyridyl]oxy]-3-azabicyclo[2.2.2]octan-3-yl]-[6-methyl-3-(triazol-2-yl)-2-pyridyl]methanone]
32	1700		COC[C@@H]1[C@@H]2CC[C@@H]([C@H](Oc3ccc(C(F)(F)F)cn3)C2)N1C(=O)c1nc(C)ccc1-c1ncccn1 [Example 180, [(1R,2S,4S,5R)-2-(methoxymethyl)-5-[[5-(trifluoromethyl)-2-pyridyl]oxy]-3-azabicyclo[2.2.2]octan-3-yl]-(6-methyl-3-pyrimidin-2-yl-2-pyridyl)methanone]
87	> 10000		COC[C@@H]1[C@@H]2CC[C@@H]([C@H](Oc3ccc(C(F)(F)F)cn3)C2)N1C(=O)c1ccccc1-c1ncccn1 [Example 181, [(1R,2S,4S,5R)-2-(methoxymethyl)-5-[[5-(trifluoromethyl)-2-pyridyl]oxy]-3-azabicyclo[2.2.2]octan-3-yl]-(2-pyrimidin-2-ylphenyl)methanone]
11	95		Cc1ccc(-c2ncccn2)c(C(=O)N2[C@H](C)[C@H]3C[C@@H](Oc4ccc(C(F)F)cn4)[C@@H]2C3)n1 [Example 182, [(1R,2R,4S,5R)-5-[[5-(difluoromethyl)-2-pyridyl]oxy]-2-methyl-3-azabicyclo[2.2.1]heptan-3-yl]-(6-methyl-3-pyrimidin-2-yl-2-pyridyl)methanone]
53	795		CCOC(=O)[C@@H]1[C@H]2C[C@@H](Oc3ccc(C(F)(F)F)cn3)[C@H](C2)N1C(=O)c1nc(C)ccc1-n1nccn1 [Example 192, ethyl (1R,2S,4S,5R)-3-[6-methyl-3-(triazol-2-yl)pyridine-2-carbonyl]-5-[[5-(trifluoromethyl)-2-pyridyl]oxy]-3-azabicyclo[2.2.1]heptane-2-carboxylate]
196	> 10000		C[C@@H]1[C@H]2C[C@@H](Oc3ccc(C(F)(F)F)cn3)[C@H](C2)N1C(=O)c1ccc(OCCF)cc1-n1nccn1 [Example 202, [4-(2-fluoroethoxy)-2-(triazol-2-yl)phenyl]-[(1R,2R,4S,5R)-2-methyl-5-[[5-(trifluoromethyl)-2-pyridyl]oxy]-3-azabicyclo[2.2.1]heptan-3-yl]methanone]
60	> 10000		C[C@@H]1[C@H]2C[C@@H](Oc3ccc(C(F)(F)F)cn3)[C@H](C2)N1C(=O)c1cc2ccccc2nc1OCCO [Example 203, [2-(2-hydroxyethoxy)-3-quinolyl]-[(1R,2R,4S,5R)-2-methyl-5-[[5-(trifluoromethyl)-2-pyridyl]oxy]-3-azabicyclo[2.2.1]heptan-3-yl]methanone]
71	236		C[C@@H]1[C@H]2C[C@@H](Oc3ccc(C(F)(F)F)cn3)[C@H](C2)N1C(=O)c1cc(OCCBr)ccc1-n1nccn1 [Example 204, [5-(2-bromoethoxy)-2-(triazol-2-yl)phenyl]-[(1R,2R,4S,5R)-2-methyl-5-[[5-(trifluoromethyl)-2-pyridyl]oxy]-3-azabicyclo[2.2.1]heptan-3-yl]methanone]
22	5400		C[C@@H]1[C@H]2C[C@@H](Oc3ccc(C(F)(F)F)cn3)[C@H](C2)N1C(=O)c1cc2ccccc2nc1OCCF [Example 205, [2-(2-fluoroethoxy)-3-quinolyl]-[(1R,2R,4S,5R)-2-methyl-5-[[5-(trifluoromethyl)-2-pyridyl]oxy]-3-azabicyclo[2.2.1]heptan-3-yl]methanone]
7.4	286		C[C@@H]1[C@H]2C[C@@H](Oc3ccc(C(F)(F)F)cn3)[C@H](C2)N1C(=O)c1c(OCCF)ccc2cccnc12 [Example 206, (7-(2-fluoroethoxy)quinolin-8-yl)((1S,3R,4R,6R)-3-methyl-6-((5-(trifluoromethyl)pyridin-2-yl)oxy)-2-azabicyclo[2.2.1]heptan-2-yl)methanone]
4	1010		C[C@@H]1[C@H]2C[C@@H](Oc3ccc(C(F)(F)F)c(F)n3)[C@H](C2)N1C(=O)c1ccccc1-c1ncccn1 [Example 219, (2-(pyrimidin-2-yl)phenyl)((1S,3R,4R,6R)-3-methyl-6-((6-fluoro-5-(trifluoromethyl)pyridin-2-yl)oxy)-2-azabicyclo[2.2.1]heptan-2-yl)methanone]
